Experimental data published in PMC12041489 (Scientific Reports, 2025).
“Also recorded” adds a separate entry of the source. Read-outs that look alike come from different tables or passages of the source.

Tests used:
mushroom tyrosinase [1] = molecular target: T1, mushroom tyrosinase (Agaricus bisporus, UniProt C7FF04); conditions: read-out: Tyrosinase inhibitory activity IC50
[2] = DPPH free radical scavenging activity assay; conditions: read-out: DPPH radical scavenging IC50
fresh-cut apples = assay: Anti-browning experiment on fresh-cut apples; set-up: species or system Fuji apples; conditions: stored at 5 °C for 4 days
mushroom tyrosinase [3] = molecular target: T1, mushroom tyrosinase; assay: biochemical
[4] = test system: human umbilical vein endothelial cells (HUVEC); assay: MTT assay for cell viability; assay type: cell-based; conditions: 24-h treatment, up to 32 µM
tyrosinase = tyrosinase (Agaricus bisporus, UniProt C7FF04); assay: Fluorescence quenching of tyrosinase; assay type: binding, mushroom; conditions: for Kq / Ksv: λex 280 nm
Sequence of tyrosinase (C7FF04 1-392 limits assumed): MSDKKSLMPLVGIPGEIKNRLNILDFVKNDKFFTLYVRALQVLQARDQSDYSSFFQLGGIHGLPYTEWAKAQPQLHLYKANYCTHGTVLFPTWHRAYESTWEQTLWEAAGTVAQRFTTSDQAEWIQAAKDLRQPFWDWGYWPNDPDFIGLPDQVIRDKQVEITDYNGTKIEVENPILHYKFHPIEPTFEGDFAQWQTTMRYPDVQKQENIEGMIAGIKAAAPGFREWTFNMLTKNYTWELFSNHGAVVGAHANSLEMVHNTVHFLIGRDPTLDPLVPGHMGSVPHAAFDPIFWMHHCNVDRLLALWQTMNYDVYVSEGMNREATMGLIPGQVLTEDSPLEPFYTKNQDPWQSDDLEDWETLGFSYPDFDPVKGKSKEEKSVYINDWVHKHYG

mushroom tyrosinase [5] = molecular target: T1, mushroom tyrosinase; assay: Tyrosinase kinetic analysis; assay type: biochemical
[6] = ABTS radical cation scavenging activity assay; conditions: read-out: ABTS radical scavenging IC50

T1 sequence (C7FF04 1-392 limits assumed): as above

| IC50 (mushroom tyrosinase [1]) [µM] | IC50 (mushroom tyrosinase [3]) [µM] | SMILES | further results |
| --- | --- | --- | --- |
| 3.289 ± 0.011 | – | Cc1ccc(CC(=O)Nc2nnc(SCc3cn(Cc4cc(=O)c(O)co4)nn3)s2)cc1 [Compound 6l, N-(5-(((1-((5-hydroxy-4-oxo-4H-pyran-2-yl)methyl)-1H-1,2,3-triazol-4-yl)met-hyl)thio)-1,3,4-thiadiazol-2-yl)-2-(p-tolyl)acetamide] | – |
| – | 1.363 ± 0.003 | COc1ccc(C(C)=O)c(OCc2cn(Cc3cc(=O)c(O)co3)nn2)c1 [Compound 13t, 2-((4-((2-acetyl-5-methoxyphenoxy)methyl)-1H-1,2,3-triazol-1-yl)methyl)-5-hydroxy-4H-pyran-4-one] | IC50 [2]: 57.9 ± 0.28 µM; L* value of fresh-cut apples (fresh-cut apples; 25 µM): 65.91; L* value of fresh-cut apples (fresh-cut apples; 50 µM): 66.59; L* value of fresh-cut apples (fresh-cut apples; 100 µM): 67.87; toxicity to HUVEC (cell viability) [4]: no discernible toxicity; also recorded: no evident toxicity; predominant quenching mechanism (tyrosinase; Stern-Volmer plots at 298, 303 and 310 K): dynamic quenching; Kq (tyrosinase; T 298 K): 1.952e+12 M⁻¹ s⁻¹; Ksv (tyrosinase; T 298 K): 0.01952 L/µmol; Kq (tyrosinase; T 303 K): 2.478e+12 M⁻¹ s⁻¹; Ksv (tyrosinase; T 303 K): 0.02478 L/µmol; Kq (tyrosinase; T 310 K): 2.823e+12 M⁻¹ s⁻¹; Ksv (tyrosinase; T 310 K): 0.02823 L/µmol; Ki (mushroom tyrosinase [5]): 0.365 µM; inhibition type (mushroom tyrosinase [5]; Lineweaver–Burk double reciprocal plots): mixed-type inhibitor; IC50 [6]: 45.64 ± 0.25 µM |
| 6.818 ± 0.027 | – | CC(=O)c1ccc(C)cc1OCc1cn(Cc2cc(=O)c(O)co2)nn1 [Compound 13n, 2-((4-((2-acetyl-5-methylphenoxy)methyl)-1H-1,2,3-triazol-1-yl)methyl)-5-hy-droxy-4H-pyran-4-one] | – |
| 2.817 ± 0.007 | – | COc1ccc(C=O)c(OCc2cn(Cc3cc(=O)c(O)co3)nn2)c1 [Compound 13j, 2-((1-((5-hydroxy-4-oxo-4H-pyran-2-yl)methyl)-1H-1,2,3-triazol-4-yl)methox-y)-4-methoxybenzaldehyde] | – |
| 3.03 ± 0.059 | – | CC(=O)c1ccc(Cl)cc1OCc1cn(Cc2cc(=O)c(O)co2)nn1 [Compound 13q, 2-((4-((2-acetyl-5–CHlorophenoxy)methyl)-1H-1,2,3-triazol-1-yl)methyl)-5-hy-droxy-4H-pyran-4-one] | – |
| 2.58 ± 0.049 | – | CC(=O)c1ccc(F)cc1OCc1cn(Cc2cc(=O)c(O)co2)nn1 [Compound 13s, 2-((4-((2-acetyl-5-fluorophenoxy)methyl)-1H-1,2,3-triazol-1-yl)methyl)-5-hy-droxy-4H-pyran-4-one] | – |
| 3.832 ± 0.005 | – | COc1ccc(CC(=O)Nc2nnc(SCc3cn(Cc4cc(=O)c(O)co4)nn3)s2)cc1 [Compound 6p, N-(5-(((1-((5-hydroxy-4-oxo-4H-pyran-2-yl)methyl)-1H-1,2,3-triazol-4-yl)met-hyl)thio)-1,3,4-thiadiazol-2-yl)-2-(4-methoxyphenyl)acetamide] | – |
| 3.33 ± 0.057 | – | CC(=O)c1ccc(Br)cc1OCc1cn(Cc2cc(=O)c(O)co2)nn1 [Compound 13r, 2-((4-((2-acetyl-5-bromophenoxy)methyl)-1H-1,2,3-triazol-1-yl)methyl)-5-hy-droxy-4H-pyran-4-one] | – |
| – | – | O=c1cc(CO)occ1O [Kojic acid, kojic acid, reference compound] | L* value of fresh-cut apples (fresh-cut apples; 50 µM): 63.04 |
| – | – | O=C1O[C@H]([C@@H](O)CO)C(O)=C1O [Vc, ascorbic acid, reference compound] | L* value of fresh-cut apples (fresh-cut apples; 50 µM): 63.58 |
| – | 6.073 ± 0.035 | O=C(Nc1nnc(SCc2cn(Cc3cc(=O)c(O)co3)nn2)s1)c1ccc(Cl)cc1 [Compound 6e, 4–CHloro-N-(5-(((1-((5-hydroxy-4-oxo-4H-pyran-2-yl)methyl)-1H-1,2,3-triazol-4-yl)methyl)thio)-1,3,4-thiadiazol-2-yl)benzamide] | – |
| – | 12.36 ± 0.039 | O=C(Cc1ccc(Br)cc1)Nc1nnc(SCc2cn(Cc3cc(=O)c(O)co3)nn2)s1 [Compound 6n, 2-(4-bromophenyl)-N-(5-(((1-((5-hydroxy-4-oxo-4H-pyran-2-yl)methyl)-1H-1,2,3-triazol-4-yl)methyl)thio)-1,3,4-thiadiazol-2-yl)acetamide] | – |
| – | > 200 | Cc1ccccc1C(=O)Nc1nnc(SCc2cn(Cc3cc(=O)c(O)co3)nn2)s1 [Compound 6b, N-(5-(((1-((5-hydroxy-4-oxo-4H-pyran-2-yl)methyl)-1H-1,2,3-triazol-4-yl)meth-yl)thio)-1,3,4-thiadiazol-2-yl)-2-methylbenzamide] | – |
| 1.83 ± 0.042 | – | CC(=O)c1cc(C)ccc1OCc1cn(Cc2cc(=O)c(O)co2)nn1 [Compound 13o, 2-((4-((2-acetyl-4-methylphenoxy)methyl)-1H-1,2,3-triazol-1-yl)methyl)-5-hy-droxy-4H-pyran-4-one] | – |
| – | 2.1 ± 0.078 | O=Cc1ccccc1OCc1cn(Cc2cc(=O)c(O)co2)nn1 [Compound 13g, 2-((1-((5-hydroxy-4-oxo-4H-pyran-2-yl)methyl)-1H-1,2,3-triazol-4-yl)methoxy)benzaldehyde] | – |
| 17.26 ± 0.038 | – | Cc1ccccc1CC(=O)Nc1nnc(SCc2cn(Cc3cc(=O)c(O)co3)nn2)s1 [Compound 6j, N-(5-(((1-((5-hydroxy-4-oxo-4H-pyran-2-yl)methyl)-1H-1,2,3-triazol-4-yl)met-hyl)thio)-1,3,4-thiadiazol-2-yl)-2-(o-tolyl)acetamide] | – |
| 1.74 ± 0.048 | – | CC(=O)c1ccc(OCc2cn(Cc3cc(=O)c(O)co3)nn2)c(C)c1 [Compound 13e, 2-((4-((4-acetyl-2-methylphenoxy)methyl)-1H-1,2,3-triazol-1-yl)methyl)-5-hydr-oxy-4H-pyran-4-one] | – |
| – | 4.98 ± 0.057 | CC(C)(C)c1cccc(C=O)c1OCc1cn(Cc2cc(=O)c(O)co2)nn1 [Compound 13l, 3-(tert-butyl)-2-((1-((5-hydroxy-4-oxo-4H-pyran-2-yl)methyl)-1H-1,2,3-triazol-4-yl)methoxy)benzaldehyde] | – |
| – | 20.59 ± 0.037 | O=C(Nc1nnc(SCc2cn(Cc3cc(=O)c(O)co3)nn2)s1)c1ccccc1 [Compound 6a, N-(5-(((1-((5-hydroxy-4-oxo-4H-pyran-2-yl)methyl)-1H-1,2,3-triazol-4-yl)meth-yl)thio)-1,3,4-thiadiazol-2-yl)benzamide] | – |
| – | 4.231 ± 0.029 | O=Cc1ccc(Br)cc1OCc1cn(Cc2cc(=O)c(O)co2)nn1 [Compound 13p, 4-bromo-2-((1-((5-hydroxy-4-oxo-4H-pyran-2-yl)methyl)-1H-1,2,3-triazol-4-yl)methoxy)benzaldehyde] | – |
| 13.81 ± 0.066 | – | Cc1cccc(CC(=O)Nc2nnc(SCc3cn(Cc4cc(=O)c(O)co4)nn3)s2)c1 [Compound 6k, N-(5-(((1-((5-hydroxy-4-oxo-4H-pyran-2-yl)methyl)-1H-1,2,3-triazol-4-yl)met-hyl)thio)-1,3,4-thiadiazol-2-yl)-2-(m-tolyl)acetamide] | – |
